Columns and labels:
AR protein = target: T1, AR protein (Homo sapiens, UniProt P10275, T878A); experiment: AR protein degradation in LNCaP cells (Western blot); format: cell-based; conditions: 8 hours
T1 construct: AR-positive human prostate cancer cells (LNCaP, cell source: ATCC); host or cells: LNCaP
Experimental: AR-positive human prostate cancer cells (LNCaP, cell source: ATCC) were cultured in RPMI 1640 (ATCC catalog number 30-2001) containing 10% FBS (Hyclone catalog number SH30406.05), and the cells were inoculated into a six-well microplate (Thermo catalog number 140675) at a density of 1.5 × 10^5 cells/well. After the cells were cultured overnight in a carbon dioxide incubator (ESCO), the prepared compound of the present invention and the positive control sample ARV-766 (source: energy chemical) solution of different concentrations were added at a volume of 1 µL/well to make the final concentrations of the compound and the positive control sample reach 100nM and 10nM, respectively. At the same time, the corresponding solvent control was set and cultured for 8 hours. After 8 hours of culture, the culture medium was removed, the cells were washed with PBS, and RIPA lysis buffer containing 1% Protease Inhibitor Cocktail was added. After lysis and centrifugation, the total protein extract was obtained, and the protein concentration in the extract was detected by BCA method. Protein electrophoresis was performed using SDS-PAGE, and then the protein was transferred to a PVDF (Millipore Sigma catalog number PSRP010R5) membrane at a constant voltage of 100V for 60 minutes. The PVDF membrane was placed in a 5% milk powder 1×TBST solution and blocked at room temperature for 1 hour. The primary antibody solution (Anti-Androgen receptor, Cell Signaling Technology catalog number: 5153S; 1:2000 dilution) was prepared and incubated at 4°C overnight. The primary antibody solution was discarded and the PVDF membrane was washed with 1×TBST for 5 minutes each time, three times. The secondary antibody solution (Thermo, catalog number SA5-35571; 1:7500 dilution) was prepared and incubated at room temperature for 1 hour. The secondary antibody solution was discarded and the PVDF membrane was washed with 1×TBST for 5 minutes each time, three times. A dual-color infrared laser imaging system (Licor catalog number Odyssey CLX) was used for Western membrane imaging. The Image Studio software was used to analyze the grayscale of the bands. GAPDH protein bands were also detected for each sample as an internal reference. The AR protein degradation rate of the compound and the positive control sample was calculated based on the grayscale of the protein bands. Among them, "A" means degradation rate ≥ 50%, "B" means 50%> degradation rate ≥ 20%, "C" means 20% degradation rate ≥ 10%, and "D" means degradation rate less than 10%.

LNCAP cell = experiment: LNCaP cell proliferation inhibition (WST-8); format: cell-based; conditions: Homo sapiens, LNCaP FGC cells, 96 hours, read-out: IC50 for inhibiting LNCAP cell proliferation
Experimental: LNCaP FGC cells (ATCC, CLR-1740) were cultured in RPMI 1640 (ATCC, 30-2001) complete medium supplemented with 10% fetal bovine serum (Hyclone, SH30406.05). On the first day of the experiment, LNCaP FGC cells were seeded at a density of 5,000 cells/well in 96-well plates using RPMI 1640 medium supplemented with 10% fetal bovine serum, with 100 µL of cell suspension per well. The cells were cultured overnight in a 37°C, 5% CO2 cell incubator. On the second day, 100 µL of different concentrations of the compound to be tested and the positive control sample ARV-766 (source: Energy Chemical) prepared in culture medium were added to each well. The final concentration of the compound was 9 concentration points of 5-fold serial dilution starting from 10 µM. The wells to which 100 µL of RPMI 1640 culture medium containing 10% fetal bovine serum was added were set as controls. The cells were cultured in a cell culture incubator at 37°C and 5% CO2 for 96 hours. On the sixth day, the 96-well cell culture plate was removed, and 1/10 volume of WST-8 (Beytime, C0040) reagent was added to each well. The absorbance at 450 nm was detected using a microplate reader (TECAN, F50).

T1 sequence (P10275 whole entry T878A): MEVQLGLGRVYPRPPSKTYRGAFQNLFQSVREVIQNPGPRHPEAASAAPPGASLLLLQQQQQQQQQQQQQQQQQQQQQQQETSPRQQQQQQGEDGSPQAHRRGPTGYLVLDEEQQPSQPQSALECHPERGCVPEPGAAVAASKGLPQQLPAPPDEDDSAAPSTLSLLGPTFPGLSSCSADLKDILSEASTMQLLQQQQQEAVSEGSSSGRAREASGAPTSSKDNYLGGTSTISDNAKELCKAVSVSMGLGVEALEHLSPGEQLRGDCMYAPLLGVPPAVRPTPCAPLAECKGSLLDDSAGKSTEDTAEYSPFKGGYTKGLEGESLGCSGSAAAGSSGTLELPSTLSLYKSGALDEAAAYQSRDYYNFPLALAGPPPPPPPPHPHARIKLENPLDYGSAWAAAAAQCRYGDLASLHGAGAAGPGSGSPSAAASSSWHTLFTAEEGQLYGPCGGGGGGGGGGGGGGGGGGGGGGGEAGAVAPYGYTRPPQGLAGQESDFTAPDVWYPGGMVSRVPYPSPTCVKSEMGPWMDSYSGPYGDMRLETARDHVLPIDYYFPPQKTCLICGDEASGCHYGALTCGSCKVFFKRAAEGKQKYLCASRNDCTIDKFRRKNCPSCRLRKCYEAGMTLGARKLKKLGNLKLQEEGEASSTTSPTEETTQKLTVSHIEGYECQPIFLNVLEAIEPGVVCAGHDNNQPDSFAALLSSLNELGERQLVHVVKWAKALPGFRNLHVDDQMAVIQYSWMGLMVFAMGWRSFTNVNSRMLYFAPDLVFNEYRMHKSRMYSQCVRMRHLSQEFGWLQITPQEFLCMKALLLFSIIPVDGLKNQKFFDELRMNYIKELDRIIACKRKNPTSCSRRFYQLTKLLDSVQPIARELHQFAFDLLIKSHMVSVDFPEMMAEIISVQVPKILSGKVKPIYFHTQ
T1 sequence (Q96SW2 whole entry partner): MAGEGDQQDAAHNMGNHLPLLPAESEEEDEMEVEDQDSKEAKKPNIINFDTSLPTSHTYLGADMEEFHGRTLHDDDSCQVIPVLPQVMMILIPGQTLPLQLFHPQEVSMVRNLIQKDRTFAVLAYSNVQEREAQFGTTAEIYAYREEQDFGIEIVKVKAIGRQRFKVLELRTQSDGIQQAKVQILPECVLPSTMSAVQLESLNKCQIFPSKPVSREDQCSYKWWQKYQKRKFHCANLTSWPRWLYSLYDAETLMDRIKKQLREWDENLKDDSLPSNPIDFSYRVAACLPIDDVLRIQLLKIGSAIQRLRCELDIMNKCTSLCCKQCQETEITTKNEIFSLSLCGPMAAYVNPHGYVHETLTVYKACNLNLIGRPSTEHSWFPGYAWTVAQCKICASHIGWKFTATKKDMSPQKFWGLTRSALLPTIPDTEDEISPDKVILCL

Structure (SMILES) | Degradation rate of AR protein in LNCAP cells (AR protein; 10 nM) | Degradation rate of AR protein in LNCAP cells (AR protein; 100 nM) | IC50 (LNCAP cell) [nM]
C[C@H]1CC2(CCN(c3ccc(C(=O)N4CCC(CN5CCN6c7ccc(N8CCC(=O)NC8=O)cc7OCC[C@H]6C5)CC4)cc3)CC2)CN1c1ccc(C#N)c(C(F)(F)F)c1 [A-P-195] | A (degradation rate ≥ 50%) | A (degradation rate ≥ 50%) | 100
COc1cc(O[C@H]2C(C)(C)[C@H](NC(=O)c3ccc(N4CCC(F)(CN5CCN6c7ccc(N8CCC(=O)NC8=O)cc7OCC[C@H]6C5)CC4)cc3)C2(C)C)ccc1C#N [A-P-196] | B (50%> degradation rate ≥ 20%) | A (degradation rate ≥ 50%) | 240
C[C@H]1CC2(CCN(c3ccc(C(=O)N4CCC(CN5CCC6(COc7cc(N8CCC(=O)NC8=O)ccc76)C(F)(F)C5)CC4)cc3)CC2)CN1c1ccc(C#N)c(Cl)c1 (stereo partly drawn) [A-P-233] | A (degradation rate ≥ 50%) | A (degradation rate ≥ 50%) | 77
C[C@H]1CC2(CCN(c3ccc(C(=O)N4CCC(CN5CCC6(CC5)CN(C)c5ccc(N7CCC(=O)NC7=O)cc5O6)CC4)cc3)CC2)CN1c1ccc(C#N)c(Cl)c1 [A-P-235, (S)-2-chloro-4-(8-(4-(4-((7-(2,4-dioxotetrahydropyrimidin-1(2H)-yl)-4-methyl-3,4-dihydrospiro[benzo[b][1,4]oxazin-2,4'-piperidine]-1'-yl)methyl)piperidine-1-carbonyl)phenyl)-3-methyl-2,8-diazaspiro[4.5]decane-2-yl)benzonitrile] | A (degradation rate ≥ 50%) | A (degradation rate ≥ 50%) | > 50000
COc1cc(O[C@H]2C(C)(C)[C@H](NC(=O)c3ccc(N4CCC(CN5CCN(c6ccc(C(=O)N[C@H]7CCC(=O)NC7=O)c(F)c6)CC5)CC4)cc3)C2(C)C)ccc1C#N [ARV766, reference compound] | B (50%> degradation rate ≥ 20%) | A (degradation rate ≥ 50%) | 490

Source: EP4806892A1, “CEREBLON E3 UBIQUITIN LIGASE INHIBITOR” (GAN & LEE PHARMACEUTICALS CO., LTD., priority 2023, dated 2025)
